Values after ≈ are worked out from the molar mass of the structure shown.
Assays:
[1] = Selectivity index, ratio of CC50 for human MT4 cells to IC50 for HIV1 3B; assay type: functional
[2] = Cytotoxicity against Homo sapiens (human) MT4 cells after 5 days by MTT assay; assay type: cell-based
[3] = test system: Human immunodeficiency virus 1; experiment: Antiviral activity against Human immunodeficiency virus 1 IIIB infected MT4 cells assessed as inhibition of virus-induced cytopathogenicity after 5 days by MTT assay; assay type: functional, organism-based; details: MT4, 120 h
[4] = Selectivity index, ratio of CC50 for human MT4 cells to IC50 for HIV2 ROD; assay type: functional
[5] = test system: Human immunodeficiency virus 2; experiment: Antiviral activity against Human immunodeficiency virus type 2 (ISOLATE ROD) infected MT4 cells assessed as inhibition of virus-induced cytopathogenicity after 5 days by MTT assay; assay type: functional, organism-based; details: Human immunodeficiency virus 2, ISOLATE ROD, MT4, 120 h
[6] = test system: Aspergillus clavatus; experiment: Antifungal activity against Aspergillus clavatus MTCC 323 after overnight incubation by broth microdilution method; assay type: functional
[7] = test system: Candida albicans; experiment: Antifungal activity against Candida albicans MTCC 227 after overnight incubation by broth microdilution method; assay type: functional
[8] = test system: Aspergillus niger; experiment: Antifungal activity against Aspergillus niger MTCC 282 after overnight incubation by broth microdilution method; assay type: functional
[9] = test system: Staphylococcus aureus; experiment: Antibacterial activity against Staphylococcus aureus MTCC 96 after overnight incubation by broth microdilution method; assay type: functional
[10] = test system: Escherichia coli; experiment: Antibacterial activity against Escherichia coli MTCC 442 after overnight incubation by broth microdilution method; assay type: functional
[11] = test system: Mycobacterium tuberculosis; experiment: Growth inhibition of Mycobacterium tuberculosis H37Rv at MIC after 28 days by Lowenstein-Jensen agar method; assay type: functional
[12] = test system: Streptococcus pyogenes; experiment: Antibacterial activity against Streptococcus pyogenes MTCC 443 after overnight incubation by broth microdilution method; assay type: functional
[13] = test system: Pseudomonas aeruginosa; experiment: Antibacterial activity against Pseudomonas aeruginosa MTCC 2488 after overnight incubation by broth microdilution method; assay type: functional
[14] = test system: Mycobacterium tuberculosis; experiment: Antitubercular activity against Mycobacterium tuberculosis H37Rv after 28 days by Lowenstein-Jensen agar method; assay type: functional; details: 672 h

SMILES	Ratio CC50/IC50 [1]	CC50 at 120 h [2] [µg/mL]	IC50 [3] [µg/mL]	Ratio CC50/IC50 [4]	IC50 [5] [µg/mL]	MIC99 [6] [µg/mL]	MIC99 [7] [µg/mL]	MIC99 [8] [µg/mL]	MIC99 [9] [µg/mL]	MIC99 [10] [µg/mL]	growth inhibition (GI) [11] [%]	MIC99 [12] [µg/mL]	MIC99 [13] [µg/mL]	MIC [14] [µg/mL]
O=[N+]([O-])c1ccc(-c2nnc(-c3cccnc3)n2Nc2nc3cc(Cl)c(Cl)cc3s2)cc1	<1	68.7 (≈ 142 µM)	> 68.6	<1	> 68.6	–	–	–	–	–	–	–	–	–
O=[N+]([O-])c1ccc(-c2nnc(-c3cccnc3)n2Nc2nc3c(Cl)cccc3s2)cc1	<1	15.6 (≈ 34.6 µM)	> 15.5	<1	> 15.5	–	–	–	–	–	–	–	–	–
O=[N+]([O-])c1ccc2nc(Nn3c(-c4ccc(Cl)cc4)nnc3-c3cccnc3)sc2c1	<1	62.1 (≈ 138 µM)	> 62.1	<1	> 62.1	> 1000	500 (≈ 1110 µM)	500 (≈ 1110 µM)	125 (≈ 278 µM)	250 (≈ 556 µM)	98	100 (≈ 222 µM)	125 (≈ 278 µM)	500 (≈ 1110 µM)
Cc1ccc2nc(Nn3c(-c4ccc(Cl)cc4)nnc3-c3cccnc3)sc2c1	<1	75.5 (≈ 180 µM)	> 75.5	<1	> 75.5	1000 (≈ 2390 µM)	1000 (≈ 2390 µM)	1000 (≈ 2390 µM)	500 (≈ 1190 µM)	500 (≈ 1190 µM)	95	500 (≈ 1190 µM)	500 (≈ 1190 µM)	50 (≈ 119 µM)
COc1ccc2nc(Nn3c(-c4ccc(Cl)cc4)nnc3-c3cccnc3)sc2c1	<1	66.8 (≈ 154 µM)	> 66.8	<1	> 66.8	500 (≈ 1150 µM)	250 (≈ 575 µM)	500 (≈ 1150 µM)	500 (≈ 1150 µM)	500 (≈ 1150 µM)	98	500 (≈ 1150 µM)	250 (≈ 575 µM)	500 (≈ 1150 µM)
Clc1ccc(-c2nnc(-c3cccnc3)n2Nc2nc3ccc(Cl)cc3s2)cc1	<1	54.3 (≈ 124 µM)	> 54.3	<1	> 54.3	1000 (≈ 2280 µM)	100 (≈ 228 µM)	500 (≈ 1140 µM)	250 (≈ 569 µM)	1000 (≈ 2280 µM)	96	500 (≈ 1140 µM)	500 (≈ 1140 µM)	250 (≈ 569 µM)
Cc1cccc2sc(Nn3c(-c4ccc(Cl)cc4)nnc3-c3cccnc3)nc12	<1	36.5 (≈ 87 µM)	> 36.4	<1	> 36.4	500 (≈ 1190 µM)	200 (≈ 477 µM)	500 (≈ 1190 µM)	100 (≈ 239 µM)	500 (≈ 1190 µM)	95	1000 (≈ 2390 µM)	250 (≈ 597 µM)	50 (≈ 119 µM)
O=[N+]([O-])c1cccc2sc(Nn3c(-c4ccc(Cl)cc4)nnc3-c3cccnc3)nc12	<1	21.3 (≈ 47.4 µM)	> 21.3	<1	> 21.3	500 (≈ 1110 µM)	100 (≈ 222 µM)	500 (≈ 1110 µM)	200 (≈ 445 µM)	100 (≈ 222 µM)	97	250 (≈ 556 µM)	125 (≈ 278 µM)	500 (≈ 1110 µM)
Clc1ccc(-c2nnc(-c3cccnc3)n2Nc2nc3cc(Cl)c(Cl)cc3s2)cc1	<1	52.1 (≈ 110 µM)	> 52.1	<1	> 52.1	1000 (≈ 2110 µM)	250 (≈ 528 µM)	250 (≈ 528 µM)	500 (≈ 1060 µM)	500 (≈ 1060 µM)	98	500 (≈ 1060 µM)	250 (≈ 528 µM)	250 (≈ 528 µM)
Clc1ccc(-c2nnc(-c3cccnc3)n2Nc2nc3c(Cl)cccc3s2)cc1	<1	27.2 (≈ 61.8 µM)	> 27.2	<1	> 27.2	500 (≈ 1140 µM)	200 (≈ 455 µM)	500 (≈ 1140 µM)	250 (≈ 569 µM)	100 (≈ 228 µM)	98	500 (≈ 1140 µM)	62.5 (≈ 142 µM)	12.5 (≈ 28.5 µM)
O=[N+]([O-])c1ccc(-c2nnc(-c3cccnc3)o2)cc1	<1	73.5 (≈ 274 µM)	> 73.5	<1	> 73.5	–	–	–	–	–	–	–	–	–
CC1(C)S[C@@H]2[C@H](NC(=O)[C@H](N)c3ccccc3)C(=O)N2[C@H]1C(=O)O [AMPICILLIN]	–	–	–	–	–	–	–	–	250 (≈ 715 µM)	100 (≈ 286 µM)	–	100 (≈ 286 µM)	100 (≈ 286 µM)	–
Clc1ccccc1C(c1ccccc1)(c1ccccc1)n1ccnc1 [CLOTRIMAZOLE]	–	–	–	–	–	–	–	–	–	–	96	–	–	20.4 (≈ 59.2 µM)
Clc1ccc(COC(Cn2ccnc2)c2ccc(Cl)cc2Cl)cc1 (stereo not given) [ECONAZOLE]	–	–	–	–	–	–	–	–	–	–	99	–	–	12.5 (≈ 32.7 µM)
COC1=CC(=O)C[C@@H](C)[C@]12Oc1c(Cl)c(OC)cc(OC)c1C2=O [GRISEOFULVIN]	–	–	–	–	–	100 (≈ 283 µM)	500 (≈ 1420 µM)	100 (≈ 283 µM)	–	–	–	–	–	–
NNC(=O)c1ccncc1 [ISONIAZID]	–	–	–	–	–	–	–	–	–	–	99	–	–	0.2 (≈ 1.46 µM)
Cc1ccnc2c1NC(=O)c1cccnc1N2C1CC1 [NEVIRAPINE]	>80	> 4	> 0.05	–	–	–	–	–	–	–	–	–	–	–
CO[C@H]1/C=C/O[C@@]2(C)Oc3c(C)c(O)c4c(O)c(c(/C=N/N5CCN(C)CC5)c(O)c4c3C2=O)NC(=O)/C(C)=C\C=C\[C@H](C)[C@H](O)[C@@H](C)[C@@H](O)[C@@H](C)[C@H](OC(C)=O)[C@@H]1C [RIFAMPIN]	–	–	–	–	–	–	–	–	–	–	99	–	–	40 (≈ 48.6 µM)
